Assay results as given in article PMC10978946, “Coumarin linked to 2-phenylbenzimidazole derivatives as potent α-glucosidase inhibitors” (Scientific Reports, 2024).
Read-outs that look alike come from different tables or passages of the source.

How the values were obtained:
[1] = target: T1, α-Glucosidase (Saccharomyces cerevisiae, EC3.2.1.20) (Saccharomyces cerevisiae, UniProt P53341); test: biochemical; format: biochemical
T1 construct: purchased Sigma-Aldrich
Procedure: α-Glucosidase (Saccharomyces cerevisiae, EC3.2.1.20, 20 U/mg) and the substrate, […] (p-NPG) were purchased from Sigma-Aldrich, and the assay was performed exactly according to our previous report[34],[35].

α-glucosidase [2] = settings: cited from earlier work; for fold more potent than acarbose: literature coumarin derivatives versus acarbose
α-glucosidase [3] = target: T2, α-glucosidase (Saccharomyces cerevisiae, UniProt P53341); test: Enzyme kinetic studies (Lineweaver–Burk plot, secondary plot); format: biochemical
T2 construct: purchased Sigma-Aldrich
Procedure: A Lineweaver–Burk plot was generated to identify the type of inhibition and Km value was determined from the plot between the reciprocal of the substrate concentration (1/[S]) and reciprocal of enzyme rate (1/V) over various inhibitor concentrations. Experimental Ki value was constructed by secondary plots of the inhibitor concentration [I] versus Km.

yeast α-glucosidase = target: yeast α-glucosidase; set-up: method as in PMID 26637946; settings: compound D and its acarbose control; cited from earlier work
[4] = supplement sheet IC50 values, unrounded, unit inferred

T2 sequence (P53341 whole entry): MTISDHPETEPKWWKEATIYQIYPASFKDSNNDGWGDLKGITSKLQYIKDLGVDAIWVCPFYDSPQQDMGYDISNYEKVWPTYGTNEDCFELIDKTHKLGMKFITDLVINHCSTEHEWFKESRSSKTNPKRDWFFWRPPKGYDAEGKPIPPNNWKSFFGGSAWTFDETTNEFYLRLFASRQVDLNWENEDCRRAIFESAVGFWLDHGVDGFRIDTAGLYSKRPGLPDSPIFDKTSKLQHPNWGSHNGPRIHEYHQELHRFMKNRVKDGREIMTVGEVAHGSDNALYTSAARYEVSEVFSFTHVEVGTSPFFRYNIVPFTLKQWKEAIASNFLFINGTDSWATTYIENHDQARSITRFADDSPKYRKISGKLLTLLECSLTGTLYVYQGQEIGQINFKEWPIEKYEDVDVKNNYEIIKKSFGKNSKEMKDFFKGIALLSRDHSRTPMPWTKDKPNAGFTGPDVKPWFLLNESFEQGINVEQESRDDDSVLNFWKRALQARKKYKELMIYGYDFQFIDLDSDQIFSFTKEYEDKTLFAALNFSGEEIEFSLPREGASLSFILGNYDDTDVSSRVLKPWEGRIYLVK
T1 sequence (P53341 whole entry): as above

SMILES	IC50 [1] [µM]	IC50 [1, 4] [µM]	melting point [°C]	further results
C/C(=N\OC(=O)/C=C/c1ccc(Br)cc1)c1cc2ccc(Br)cc2oc1=O [Compound C]	–	–	–	IC50 (α-glucosidase [2]; Fig. 1, compound C and its acarbose control): 2.54 µM; fold more potent than acarbose (α-glucosidase [2]): 252 fold
O=C(Oc1ccc2ccc(=O)oc2c1)c1ccc2[nH]c(-c3ccccc3O)nc2c1 [Compound 5k, 2-Oxo-2H-chromen-7-yl 2-(2-hydroxyphenyl)-1H-benzo[d]imidazole-5-carboxylate]	10.8 ± 0.1	–	187 to 189	fold more potent than compound 5d ([1]; IC50 comparison 5k versus 5d): twofold; inhibition pattern (α-glucosidase [3]; Lineweaver–Burk plot, Km increased, Vmax unchanged): competitive inhibition pattern; Ki (α-glucosidase [3]; from plot of Km versus inhibitor concentration, substrate p-nitrophenyl α-D-glucopyranoside 1–16 mM, read-out: inhibition constant (Ki)): 10.4 µM
COc1ccc(-c2nc3cc(C(=O)N/N=C/c4cccs4)ccc3[nH]2)cc1 [Compound E]	–	–	–	IC50 (α-glucosidase [2]; Fig. 1, compound E and its acarbose control): 60.1 µM
Cc1ccc(/C=C/C(=O)Oc2cc(=O)oc3ccccc23)cc1 [Compound B]	–	–	–	IC50 (α-glucosidase [2]; Fig. 1, compound B and its ursolic acid control): 13 µM
COc1cc(-c2nc3ccccc3[nH]2)ccc1OCC(=O)Nc1ccc(F)cc1 [Compound F]	–	–	–	IC50 (α-glucosidase [2]; Fig. 1, compound F and its acarbose control): 99.6 µM
O=C(N/N=C/c1ccccc1O)c1cc2ccccc2oc1=O [Compound A]	–	–	–	IC50 (α-glucosidase [2]; Fig. 1, compound A and its acarbose control): 1.1 µM; fold more potent than acarbose (α-glucosidase [2]): 35.8 fold
Cc1c(-c2nc3cc(C(=O)Oc4ccc5ccc(=O)oc5c4)ccc3[nH]2)cccc1[N+](=O)[O-] [Compound 5l, 2-Oxo-2H-chromen-7-yl 2-(2-methyl-3-nitrophenyl)-1H-benzo[d]imidazole-5-carboxylate]	119.5 ± 0.1	119	194 to 196	fold decrease of inhibitory activity versus compound 5m ([1]; 3-chloro replaced with 3-nitro): three folds
O=C(Oc1ccc2ccc(=O)oc2c1)c1ccc2[nH]c(-c3ccccc3)nc2c1 [Compound 5a, 2-Oxo-2H-chromen-7-yl 2-phenyl-1H-benzo[d]imidazole-5-carboxylate]	50 ± 0.8	50	180 to 183	fold better than acarbose ([1]; ratio of IC50 values versus acarbose): approximately 15 fold
Cc1cc2nc(-c3ccc(C(=O)N/N=C/c4cc(O)c(O)c(O)c4)cc3)[nH]c2cc1C [Compound D]	–	–	–	IC50 (yeast α-glucosidase): 8.4 µM

More lines, main results first:

IC50 [1] [µM]	IC50 [1, 4] [µM]	melting point [°C]	SMILES	further results
44.9	44.9	193 to 195	Cc1ccc(-c2nc3cc(C(=O)Oc4ccc5ccc(=O)oc5c4)ccc3[nH]2)cc1 [Compound 5i, 2-Oxo-2H-chromen-7-yl 2-(p-tolyl)-1H-benzo[d]imidazole-5-carboxylate]	–
34.7 ± 0.7	34.7	189 to 191	O=C(Oc1ccc2ccc(=O)oc2c1)c1ccc2[nH]c(-c3ccccc3Cl)nc2c1 [Compound 5e, 2-Oxo-2H-chromen-7-yl 2-(2-chlorophenyl)-1H-benzo[d]imidazole-5-carboxylate]	–
22.9 ± 0.2	23	179 to 181	O=C(Oc1ccc2ccc(=O)oc2c1)c1ccc2[nH]c(-c3ccc(Br)cc3)nc2c1 [Compound 5d, 2-Oxo-2H-chromen-7-yl 2-(4-bromophenyl)-1H-benzo[d]imidazole-5-carboxylate]	–
30.6 ± 0.4	30.6	195 to 197	O=C(Oc1ccc2ccc(=O)oc2c1)c1ccc2[nH]c(-c3ccc(F)cc3)nc2c1 [Compound 5b, 2-Oxo-2H-chromen-7-yl 2-(4-fluorophenyl)-1H-benzo[d]imidazole-5-carboxylate]	–
45.2 ± 0.2	45.3	182 to 184	O=C(Oc1ccc2ccc(=O)oc2c1)c1ccc2[nH]c(-c3cccc(Cl)c3Cl)nc2c1 [Compound 5h, 2-Oxo-2H-chromen-7-yl 2-(2,3-dichlorophenyl)-1H-benzo[d]imidazole-5-carboxylate]	–
26.9 ± 1.1	26.9	180 to 182	O=C(Oc1ccc2ccc(=O)oc2c1)c1ccc2[nH]c(-c3ccc(Cl)cc3)nc2c1 [Compound 5c, 2-Oxo-2H-chromen-7-yl 2-(4-chlorophenyl)-1H-benzo[d]imidazole-5-carboxylate]	–
46.7 ± 0.2	46.7	201 to 203	O=C(Oc1ccc2ccc(=O)oc2c1)c1ccc2[nH]c(-c3ccc(F)cc3F)nc2c1 [Compound 5g, 2-Oxo-2H-chromen-7-yl 2-(2,4-difluorophenyl)-1H-benzo[d]imidazole-5-carboxylate]	–
25.2 ± 0.5	25.2	172 to 174	O=C(Oc1ccc2ccc(=O)oc2c1)c1ccc2[nH]c(-c3cccc(Br)c3)nc2c1 [Compound 5f, 2-Oxo-2H-chromen-7-yl 2-(3-bromophenyl)-1H-benzo[d]imidazole-5-carboxylate]	–
40.3 ± 0.5	–	169 to 171	COc1ccc(-c2nc3cc(C(=O)Oc4ccc5ccc(=O)oc5c4)ccc3[nH]2)cc1 [Compound 5j, 2-Oxo-2H-chromen-7-yl 2-(4-methoxyphenyl)-1H-benzo[d]imidazole-5-carboxylate]	–
40.9 ± 1.1	40.9	182 to 184	Cc1c(Cl)cccc1-c1nc2cc(C(=O)Oc3ccc4ccc(=O)oc4c3)ccc2[nH]1 [Compound 5m, 2-Oxo-2H-chromen-7-yl 2-(3-chloro-2-methylphenyl)-1H-benzo[d]imidazole-5-carboxylate]	–
